Drawing on patent publication US12415803B2, “Fused imidazopyridines as reversible inhibitors of Brutons Tyrosine Kinase (BTK)” (Merck Patent GmbH, priority 2018, dated 2025), this text covers IC50 for 8 compounds.

One assay has as its target Btk (Homo sapiens (Human), UniProt Q06187). The assay can be described thus: Btk PBMC IC50 Cell Assay (anti-IgM-induced CD69 expression on B cells).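 Further: freshly isolated human PBMCs, IC50 from concentration-response of the share of CD19+ cells expressing CD69 after anti-IgM BCR stimulation.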 As to conditions: anti-IgM-induced CD69 expression on CD19 positive cells in human PBMCs. The assay is classed as cell-based.
A further assay deals with full-length human BTK (Homo sapiens (Human), UniProt Q06187). Briefly: BTK IC50 Enzyme Assay (microfluidic off-chip mobility shift kinase assay).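 Further: Read-out separates phosphorylated peptide product from substrate by their charge-to-mass difference, with IC50 fitted from log inhibitor concentration against percent enzyme activity.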 Format: biochemical. The conditions noted are these: Btk Enzymatic IC50 Assay, 90 min at 27 C.
full-length human BTK, sequence (Q06187 whole entry): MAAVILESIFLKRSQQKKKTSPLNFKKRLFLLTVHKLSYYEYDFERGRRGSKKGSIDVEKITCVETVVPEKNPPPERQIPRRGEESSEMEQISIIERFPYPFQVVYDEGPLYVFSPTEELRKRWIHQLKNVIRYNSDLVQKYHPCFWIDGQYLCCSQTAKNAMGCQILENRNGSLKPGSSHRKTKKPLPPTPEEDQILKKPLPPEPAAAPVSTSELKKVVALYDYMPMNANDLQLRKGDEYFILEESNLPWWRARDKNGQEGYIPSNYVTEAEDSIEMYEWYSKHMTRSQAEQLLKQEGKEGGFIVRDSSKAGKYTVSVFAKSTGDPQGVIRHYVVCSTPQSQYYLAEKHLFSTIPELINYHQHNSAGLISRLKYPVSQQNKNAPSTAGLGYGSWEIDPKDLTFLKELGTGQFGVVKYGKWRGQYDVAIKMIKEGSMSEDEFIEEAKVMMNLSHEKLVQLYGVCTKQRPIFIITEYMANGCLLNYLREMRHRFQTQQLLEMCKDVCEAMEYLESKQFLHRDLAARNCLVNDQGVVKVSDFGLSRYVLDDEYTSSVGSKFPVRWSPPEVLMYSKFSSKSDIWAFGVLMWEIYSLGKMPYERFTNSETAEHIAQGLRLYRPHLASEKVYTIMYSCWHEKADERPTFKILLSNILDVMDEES

Btk, sequence (Q06187 whole entry): as above

Take `Cc1c(-c2nc3c(-c4ccc5c(c4)CCCCC5NC(=O)c4noc(C(C)(C)C)n4)ccnc3[nH]2)cnn1C(C)C` (stereo not shown) [Compound 20, 5-tert-Butyl-[1,2,4]oxadiazole-3-carboxylic acid {2-[2-(1-isopropyl-5-methyl-1H-pyrazol-4-yl)-3H-imidazo[4,5-b]pyridin-7-yl]-6,7,8,9-tetrahydro-5H-benzocyclohepten-5-yl}-amide]: the IC50 is 1 to 10 nM at Btk and < 1 nM at full-length human BTK.

With `Cc1c(-c2nc3c(-c4ccc5c(c4)CCCC[C@H]5NC(=O)c4noc(C(C)(C)C)n4)ccnc3[nH]2)cnn1C(C)C` [Compound 21, 5-tert-Butyl-[1,2,4]oxadiazole-3-carboxylic acid {(R)-2-[2-(1-isopropyl-5-methyl-1H-pyrazol-4-yl)-3H-imidazo[4,5-b]pyridin-7-yl]-6,7,8,9-tetrahydro-5H-benzocyclohepten-5-yl}-amide], the IC50 at Btk was 1 to 10 nM; at full-length human BTK it was < 1 nM.

For the compound `Cc1c(-c2nc3c(-c4ccc5c(c4)CCCC[C@@H]5NC(=O)c4noc(C(C)(C)C)n4)ccnc3[nH]2)cnn1C(C)C` [Compound 22, 5-tert-Butyl-[1,2,4]oxadiazole-3-carboxylic acid {(S)-2-[2-(1-isopropyl-5-methyl-1H-pyrazol-4-yl)-3H-imidazo[4,5-b]pyridin-7-yl]-6,7,8,9-tetrahydro-5H-benzocyclohepten-5-yl}-amide], the values for the half-inhibitory concentration (IC50) against Btk and at full-length human BTK were 10 to 100 nM and 1 to 10 nM, respectively.

For the compound `Cc1c(-c2nc3c(-c4ccc5c(c4)CCCCC5NC(=O)c4noc(C5(C)CC5)n4)ccnc3[nH]2)cnn1C(C)C` (stereo not shown) [Compound 23, 5-(1-Methyl-cyclopropyl)-[1,2,4]oxadiazole-3-carboxylic acid {2-[2-(1-isopropyl-5-methyl-1H-pyrazol-4-yl)-3H-imidazo[4,5-b]pyridin-7-yl]-6,7,8,9-tetrahydro-5H-benzocyclohepten-5-yl}-amide], the half-maximal inhibitory concentration (IC50) on Btk was 1 to 10 nM; on full-length human BTK, < 1 nM.

As to `Cc1c(-c2nc3c(-c4ccc5c(c4)CCCC[C@@H]5NC(=O)c4noc(C5(C)CC5)n4)ccnc3[nH]2)cnn1C(C)C` [Compound 25, 5-(1-Methyl-cyclopropyl)-[1,2,4]oxadiazole-3-carboxylic acid {(S)-2-[2-(1-isopropyl-5-methyl-1H-pyrazol-4-yl)-3H-imidazo[4,5-b]pyridin-7-yl]-6,7,8,9-tetrahydro-5H-benzocyclohepten-5-yl}-amide], the results for the IC50 against Btk and at full-length human BTK were 10 to 100 nM and 1 to 10 nM, respectively.

For the compound `Cc1c(-c2nc3c(-c4ccc5c(c4)CCCC[C@H]5NC(=O)c4nc(C5(C)CC5)no4)ccnc3[nH]2)cnn1C(C)C` [Compound 27, 3-(1-Methyl-cyclopropyl)-[1,2,4]oxadiazole-5-carboxylic acid {(R)-2-[2-(1-isopropyl-5-methyl-1H-pyrazol-4-yl)-3H-imidazo[4,5-b]pyridin-7-yl]-6,7,8,9-tetrahydro-5H-benzocyclohepten-5-yl}-amide], the IC50 is 1 to 10 nM against Btk and < 1 nM at full-length human BTK.

Take `Cc1c(-c2nc3c(-c4ccc5c(c4)CCCC[C@@H]5NC(=O)c4nc(C5(C)CC5)no4)ccnc3[nH]2)cnn1C(C)C` [Compound 28, 3-(1-Methyl-cyclopropyl)-[1,2,4]oxadiazole-5-carboxylic acid {(S)-2-[2-(1-isopropyl-5-methyl-1H-pyrazol-4-yl)-3H-imidazo[4,5-b]pyridin-7-yl]-6,7,8,9-tetrahydro-5H-benzocyclohepten-5-yl}-amide]: the IC50 against Btk and at full-length human BTK was > 100 nM throughout.

Turning to `Cc1nn(C(C)C)c(C)c1-c1nc2c(-c3ccc4c(c3)CCCCC4NC(=O)c3noc(C(C)(C)C)n3)ccnc2[nH]1` (stereo not shown) [Compound 29, 5-tert-Butyl-[1,2,4]oxadiazole-3-carboxylic acid {2-[2-(1-isopropyl-3,5-dimethyl-1H-pyrazol-4-yl)-3H-imidazo[4,5-b]pyridin-7-yl]-6,7,8,9-tetrahydro-5H-benzocyclohepten-5-yl}-amide], the IC50 was 1 to 10 nM against Btk and < 1 nM on full-length human BTK.

For orientation: IC50 means the concentration that gives 50% inhibition.
